Measurements as given in patent US5919769A, “Fucose derivatives, drugs containing the same as active ingredient, and intermediates for producing the same” (Kanebo, Ltd, priority 1995, dated 1999).
Counter-ions that a name gives are not always drawn.

Experiments:
P-selectin = assay: Inhibitory test on the binding of P-selectin to sialyl Le^X (selectin-IgG chimera); details: inhibition of P-selectin IgG chimera binding to sialyl Le^X-pentaceramide
Description: Inhibitory test on the binding of P-selectin to sialyl Le^X :
(§1) The experiment was carried out according to the method using selectin-IgG chimera, which was reported by Foxall, C. et al. (J. Cell Biol., 117, 895-902 (1992)).
(§2) Sialyl Le^X -pentaceramide was dissolved in 50% methanol in distilled water, and the solution was put into a 96-well plate in an amount of 100 pmol/well. The plate was allowed to stand at room temperature overnight, and the solvent therein was evaporated. The plate was washed with distilled water, and subjected to blocking with 50 mM imidazole buffer (pH 7.2) containing 5% BSA (bovine serum albumin) and 1 mM calcium chloride at room temperature for one hour.
(§3) Separately, to 500-fold diluted solution of each biotinylated anti-human IgG Fc and streptavidin-alkaline phosphatase conjugate with a 50 mM imidazole buffer (pH 7.2) containing 1% BSA and 1 mM calcium chloride, P-selectin IgG chimera was added to give a final concentration of 40 μg/ml, and the mixture was incubated at room temperature for 30 minutes to give the complex solution.
(§4) A test compound was dissolved in DMSO (except that the test compound h was dissolved in distilled water) to give 10 mM aqueous solution thereof, which was serially diluted with 50 mM imidazole buffer (pH 7.2) containing 1% BSA and 1 mM calcium chloride to give the solutions in 8 various concentrations (two-fold serial dilution from 20 μM). The test compound solution in each concentration and the above complex solution were mixed in equal volume, and the mixture was incubated at room temperature for 30 minutes to give the reaction solution.
(§5) After the blocking was completed, the blocking solution in the above plate was discarded, and the plate was washed with 50 mM imidazole buffer (pH 7.2), and thereto was added the above reaction solution in an amount of 50 μl/well. The plate was incubated at 37° C. for 45 minutes, and then washed three times with 50 mM imidazole buffer (pH 7.2) and washed three times with distilled water. 1M diethanolamine (pH 9.8) containing 0.01% magnesium chloride and 1 mg/ml p-nitrophenyl phosphate was put into each well in an amount of 50 μl/well, and the plate was allowed to stand for 1 to 2 hours for color development. The absorbance at 405 nm was measured, and the binding rate (%) was calculated by the following equation, based on the absorbance (X) of the wells containing a test compound at various concentrations and the absorbance (A) of the wells containing no test compound.
(§6) IC50 was evaluated by probit method from the binding rate.

L-selectin = assay: Inhibitory test on the binding of L-selectin to sialyl Le^X (selectin-IgG chimera); details: inhibition of L-selectin IgG chimera binding to sialyl Le^X-pentaceramide
Description: as §1, §2, §3, §4, §5, §6
Inhibitory test on the binding of L-selectin to sialyl Le^X :
The same procedures of Experiment 1 were repeated except that L-selectin IgG chimera (40 μg/ml) was used instead of P-selectin IgG chimera (40 μg/ml).

Row | IC50 (P-selectin) [nM] | IC50 (L-selectin) [nM] | IC50 (P-selectin; sodium salt) [nM] | IC50 (L-selectin; sodium salt) [nM] | SMILES
1 | 100 | 1700 |  |  | CCCCCCCCCCCCCCC(CCCCCCCCCCCCCC)C(=O)N[C@@H](CO[C@@H]1O[C@H]([C@H](C)O)[C@@H](O)[C@@H]1O)C(=O)N[C@H](CCC(=O)O)C(=O)Nc1ccccc1 [compound g, [N-(2-tetradecylhexadecanoyl)-O-(α-L-fucofuranosyl)-L-seryl]-D-glutamic acid 1-anilide]
2 | 500 | 6000 |  |  | CCCCCCCCCCCCCCC(CCCCCCCCCCCCCC)C(=O)N[C@@H](CO[C@@H]1O[C@@H](C)[C@@H](O)[C@@H](O)[C@@H]1O)C(=O)N[C@H](CCC(=O)O)C(=O)NC [compound j, [N-(2-tetradecylhexadecanoyl)-O-(α-L-fucopyranosyl)-L-seryl]-D-glutamic acid 1-methylamide]
3 | 1000 | 1000 |  |  | CCCCCCCCCCCCCCC(CCCCCCCCCCCCCC)C(=O)N[C@@H](CS[C@H]1O[C@@H](C)[C@@H](O)[C@@H](O)[C@@H]1O)C(=O)N[C@H](CCC(=O)O)C(=O)NC [compound u, [N-(2-tetradecylhexadecanoyl)-S-(β-L-fucopyranosyl)-L-cysteinyl]-D-glutamic acid 1-methylamide]
4 | 2100 | 18000 |  |  | CCCCCCCCCCCCCCC(CCCCCCCCCCCCCC)C(=O)N[C@H](CO[C@@H]1O[C@@H](C)[C@@H](O)[C@@H](O)[C@@H]1O)C(=O)N[C@H](CCC(=O)O)C(=O)NC [compound l, [N-(2-tetradecylhexadecanoyl)-O-(α-L-fucopyranosyl)-D-seryl]-D-glutamic acid 1-methylamide]
5 | 100 | 100 |  |  | CCCCCCCCCCCCCCC(CCCCCCCCCCCCCC)C(=O)N[C@H](CS[C@@H]1O[C@@H](C)[C@@H](O)[C@@H](O)[C@@H]1O)C(=O)N[C@@H](CCC(=O)O)C(=O)NC [compound s, [N-(2-tetradecylhexadecanoyl)-S-(α-L-fucopyranosyl)-D-cysteinyl]-L-glutamic acid 1-methylamide]
6 | 300 | 600 |  |  | CCCCCCCCCCCCCCC(CCCCCCCCCCCCCC)C(=O)N[C@H](CS[C@@H]1O[C@@H](C)[C@@H](O)[C@@H](O)[C@@H]1O)C(=O)N[C@H](CCC(=O)O)C(=O)NC [compound t, [N-(2-tetradecylhexadecanoyl)-S-(α-L-fucopyranosyl)-D-cysteinyl]-D-glutamic acid 1-methylamide]
7 | 1200 | 2500 |  |  | CCCCCCCCCCCCCCC(CCCCCCCCCCCCCC)C(=O)N[C@@H](CO[C@@H]1O[C@H]([C@H](C)O)[C@@H](O)[C@@H]1O)C(=O)NCCCCC(=O)O [compound f, 5-N-[N-(2-tetradecylhexadecanoyl)-O-(α-L-fucofuranosyl)-L-seryl]aminovaleric acid]
8 | 100 | 200 |  |  | CCCCCCCCCCCCCCC(CCCCCCCCCCCCCC)C(=O)N[C@@H](CS[C@@H]1O[C@@H](C)[C@@H](O)[C@@H](O)[C@@H]1O)C(=O)N[C@@H](CCC(=O)O)C(=O)NC [compound q, [N-(2-tetradecylhexadecanoyl)-S-(α-L-fucopyranosyl)-L-cysteinyl]-L-glutamic acid 1-methylamide]
9 | 1000 | 1500 |  |  | CCCCCCCCCCCCCCC(CCCCCCCCCCCCCC)C(=O)N[C@@H](CO[C@@H]1O[C@H]([C@H](C)O)[C@@H](O)[C@@H]1O)C(=O)N[C@H](CCC(=O)O)C(=O)NC [compound b, [N-(2-tetradecylhexadecanoyl)-O-(α-L-fucofuranosyl)-L-seryl]-D-glutamic acid 1-methylamide]
10 | 300 | 800 |  |  | CCCCCCCCCCCCCCC(CCCCCCCCCCCCCC)C(=O)N[C@@H](CO[C@H]1O[C@@H](C)[C@@H](O)[C@@H](O)[C@@H]1O)C(=O)N[C@H](CCC(=O)O)C(=O)NC [compound n, [N-(2-tetradecylhexadecanoyl)-O-(β-L-fucopyranosyl)-L-seryl]-D-glutamic acid 1-methylamide]
11 | 1900 | 39000 |  |  | CCCCCCCCCCCCCCC(CCCCCCCCCCCCCC)C(=O)N[C@@H](CO[C@@H]1O[C@@H](C)[C@@H](O)[C@@H](O)[C@@H]1O)C(=O)N[C@@H](CCC(=O)O)C(=O)NC [compound i, [N-(2-tetradecylhexadecanoyl)-O-(α-L-fucopyranosyl)-L-seryl]-L-glutamic acid 1-methylamide]
12 | > 500000 | > 500000 |  |  | CC(=O)N[C@H]1[C@H]([C@H](O)[C@H](O)CO)O[C@@](O[C@H]2[C@@H](O)[C@@H](CO)O[C@@H](O[C@@H]([C@H](O[C@@H]3O[C@@H](C)[C@@H](O)[C@@H](O)[C@@H]3O)[C@H](C=O)NC(C)=O)[C@H](O)CO)[C@@H]2O)(C(=O)O)C[C@@H]1O [compound X, Sialyl Le^X, reference compound]
13 | 200 | 500 |  |  | CCCCCCCCCCCCCCC(CCCCCCCCCCCCCC)C(=O)N[C@H](CO[C@@H]1O[C@H]([C@H](C)O)[C@@H](O)[C@@H]1O)C(=O)N[C@H](CCC(=O)O)C(=O)NC [compound d, [N-(2-tetradecylhexadecanoyl)-O-(α-L-fucofuranosyl)-D-seryl]-D-glutamic acid 1-methylamide]
14 | 300 | 1600 |  |  | CCCCCCCCCCCCCCC(CCCCCCCCCCCCCC)C(=O)N[C@H](CO[C@H]1O[C@@H](C)[C@@H](O)[C@@H](O)[C@@H]1O)C(=O)N[C@@H](CCC(=O)O)C(=O)NC [compound o, [N-(2-tetradecylhexadecanoyl)-O-(β-L-fucopyranosyl)-D-seryl]-L-glutamic acid 1-methylamide]
15 | 200 | 700 |  |  | CCCCCCCCCCCCCCC(CCCCCCCCCCCCCC)C(=O)N[C@@H](CS[C@@H]1O[C@@H](C)[C@@H](O)[C@@H](O)[C@@H]1O)C(=O)N[C@H](CCC(=O)O)C(=O)NC [compound r, [N-(2-tetradecylhexadecanoyl)-S-(α-L-fucopyranosyl)-L-cysteinyl]-D-glutamic acid 1-methylamide]
16 | 600 | 800 |  |  | CCCCCCCCCCCCCCC(CCCCCCCCCCCCCC)C(=O)N[C@@H](CO[C@H]1O[C@@H](C)[C@@H](O)[C@@H](O)[C@@H]1O)C(=O)N[C@@H](CCC(=O)O)C(=O)NC [compound m, [N-(2-tetradecylhexadecanoyl)-O-(β-L-fucopyranosyl)-L-seryl]-L-glutamic acid 1-methylamide]
17 | 300 | 700 |  |  | CCCCCCCCCCCCCCC(CCCCCCCCCCCCCC)C(=O)N[C@H](CO[C@H]1O[C@@H](C)[C@@H](O)[C@@H](O)[C@@H]1O)C(=O)N[C@H](CCC(=O)O)C(=O)NC [compound p, [N-(2-tetradecylhexadecanoyl)-O-(β-L-fucopyranosyl)-D-seryl]-D-glutamic acid 1-methylamide]
18 |  |  | 1200 | 300 | CCCCCCCCCCCCCCC(CCCCCCCCCCCCCC)C(=O)N[C@@H](CO[C@@H]1O[C@H]([C@H](C)O)[C@@H](O)[C@@H]1O)C(=O)N[C@H](CCC(=O)O)C(=O)NC [compound h, [N-(2-tetradecylhexadecanoyl)-O-(α-L-fucofuranosyl)-L-seryl]-D-glutamic acid 1-methylamide sodium salt]
19 | 500 | 1800 |  |  | CCCCCCCCCCCCCCC(CCCCCCCCCCCCCC)C(=O)N[C@@H](CO[C@@H]1O[C@H]([C@H](C)O)[C@@H](O)[C@@H]1O)C(=O)NCCCC(=O)O [compound e, 4-N-[N-(2-tetradecylhexadecanoyl)-O-(α-L-fucofuranosyl)-L-seryl]aminobutyric acid]
20 | 1300 | 2200 |  |  | CCCCCCCCCCCCCCC(CCCCCCCCCCCCCC)C(=O)N[C@@H](CO[C@@H]1O[C@H]([C@H](C)O)[C@@H](O)[C@@H]1O)C(=O)N[C@@H](CCC(=O)O)C(=O)NC [compound a, [N-(2-tetradecylhexadecanoyl)-O-(α-L-fucofuranosyl)-L-seryl]-L-glutamic acid 1-methylamide]
